Laboratory results reported in patent US9063143B2, “Cancer platinum resistance detection and sensitization method” (University of South Florida, priority 2008, dated 2015).

Experiments:
Assay in all cases: MTT cell proliferation assay, cisplatin resistance
Assay type in all cases: cell-based
Conditions in all cases: MTT proliferation rate at 2 μg/mL
[1] = system: A2780S ovarian cancer cell line
Experimental: (§1) Ovarian cancer cell lines (C13, OV2008, A2780S, A2780CP, IGROV1, T8, A2008, IOSER, and OVCAR5) were grown in RPMI-1640 supplemented with 10% fetal bovine serum, 1% sodium pyruvate, and 1% nonessential amino acids. IOSER cells were grown in 1:1 MCBD105 and Medium 199, HEPES, Bovine Pituitary Extract, Insulin, hEGF, hydrocortisone and 15% FBS. All tissue culture reagents were obtained from Sigma Aldrich (St Louis, Mo.). Cells were maintained in a CO2 incubator at 37° C. and subcultured at 70% confluence. The cell lines consist of two from the NCI60 panel: IGR-OV1 (doubling time 31) and OVCAR-5 (doubling time 48.8). Several cell lines have mother/daughter relationships including A2008 and daughter C13; as well as A2780S/A2780CP.
(§2) To induce the development of platinum-resistance, the nine ovarian cancer cell lines were subjected to serial treatments with increasing dose cisplatin (Group A: 1 and 3 μg/mL, Group B: 2 and 4 μg/mL, and Group C: 3 and 5 μg/mL) using a protocol previously described by Hong et al (Antisense Bcl2 oligonucleotide in cisplatin-resistant bladder cancer cell lines. BJU Int. 2002 July; 90(1):113-7). For each of the 9 cell lines, three different dosage schedules were used: Schedule A—3 treatment/recovery cycles at 1 μg/mL, followed by 3 treatment/recovery cycles at 3 μg/mL; Schedule B—3 treatment/recovery cycles at 2 μg/mL, followed by 3 treatment/recovery cycles at 4 μg/mL; Schedule C—3 treatment/recovery cycles at 3 μg/mL, followed by 3 treatment/recovery cycles at 5 μg/mL. After each treatment, cells were allowed to recover before re-treatment. Gene expression analysis was performed prior to treatment, after 3 and 6 treatments. The experiment design and notations used for each treatment schedule are outlined in Table 1.
(§3) Thus, for each of the 9 cell lines, 3 different starting doses of cisplatin were used with three different recovery cycles, such that a total of 162 treatment/recovery cycles were induced. Increasing platinum-resistance was confirmed by MTT cell proliferation assays prior to cisplatin treatment, and after 3 and 6 treatment/recovery cycles (for each treatment schedule).
(§4) MTT solution was produced by dissolving 3-(4,5-Dimethylthiazol-2-yl)-2,5-diphenyltetrazolium bromide (MTT; Sigma, St. Louis, Mo., USA) in phosphate-buffered saline (PBS; 5 mg/mL). Cells (1×10^3) were incubated with 100 μL of culture medium for 48 h in 96-well plates, and 100 μL of MTT solution with RPMI media in a 1:10 concentration was added to each well. After 4 h of incubation, medium was decanted. 100 μL of acidified isopropanol was added to each well. […] MTT assays were performed independently in triplicate per each experimental time point and means reported. For each cell line at each time-point for each schedule, an IC50 was calculated using MTT assay, as well as a percent cell survival at a fixed cisplatin concentration (based upon the mid-point of the log-phase of the dose-response curve for each cell line at baseline), seen in Table 2.
(§5) Prior to treatment (baseline), and at each dose level following treatment (3 and 6 treatment/recovery cycles) and cell recovery, RNA was extracted and genome-wide expression analysis performed using U133 plus 2.0 Affymetrix chips and cisplatin-resistance was quantified using MTT assay. In parallel, at each of these time-points, RNA was extracted and genome-wide expression analysis performed using U133 plus 2.0 Affymetrix chips. Array analysis was performed on 72 samples. Following recovery from each dose level, cells were evaluated for platinum-resistance using MTT proliferation assay, seen in Table 3. Cell line recovery was defined as the time taken for the cells to repopulate in a normal fashion (to reach 70% confluence in 48 hours). Cell line proliferation rate at 2 μg/mL was used as a measure of resistance.

[2] = system: OV2008 ovarian cancer cell line
Experimental: as §1, §2, §3, §4, §5

[3] = system: OVCAR5 ovarian cancer cell line
Experimental: as §1, §2, §3, §4, §5

[4] = system: A2780CP ovarian cancer cell line
Experimental: as §1, §2, §3, §4, §5

[5] = system: A2008 ovarian cancer cell line
Experimental: as §1, §2, §3, §4, §5

[6] = system: IGROV1 ovarian cancer cell line
Experimental: as §1, §2, §3, §4, §5

[7] = system: T8 ovarian cancer cell line
Experimental: as §1, §2, §3, §4, §5

IOSER cells = system: IOSER cells
Experimental: as §1, §2, §3, §4, §5

[8] = system: C13 ovarian cancer cell line
Experimental: as §1, §2, §3, §4, §5

## N.N.[Cl][Pt][Cl] [cisplatin]
[1]; A2780S after cisplatin regimen 1.33
  Cell population measurements: 26
[1]; A2780S after cisplatin regimen 2.33
  Cell population measurements: 39
[1]; A2780S after cisplatin regimen 3.33
  Cell population measurements: 64
[1]; A2780S after cisplatin regimen 3.36
  Cell population measurements: 30.5
[1]; A2780S after cisplatin regimen 4.36
  Cell population measurements: 87
[1]; A2780S after cisplatin regimen 5.36
  Cell population measurements: 72
[2]; OV2008 after cisplatin regimen 1.33
  Cell population measurements: 62
[2]; OV2008 after cisplatin regimen 2.33
  Cell population measurements: 54
[2]; OV2008 after cisplatin regimen 3.33
  Cell population measurements: 67
[2]; OV2008 after cisplatin regimen 3.36
  Cell population measurements: 64.8
[2]; OV2008 after cisplatin regimen 4.36
  Cell population measurements: 98
[2]; OV2008 after cisplatin regimen 5.36
  Cell population measurements: 86
[3]; OVCAR5 after cisplatin regimen 1.33
  Cell population measurements: 49
[3]; OVCAR5 after cisplatin regimen 2.33
  Cell population measurements: 41
[3]; OVCAR5 after cisplatin regimen 3.33
  Cell population measurements: 47
[3]; OVCAR5 after cisplatin regimen 3.36
  Cell population measurements: 66.5
[3]; OVCAR5 after cisplatin regimen 4.36
  Cell population measurements: 69
[3]; OVCAR5 after cisplatin regimen 5.36
  Cell population measurements: 63
[4]; A2780CP after cisplatin regimen 1.33
  Cell population measurements: 84
[4]; A2780CP after cisplatin regimen 2.33
  Cell population measurements: 100
[4]; A2780CP after cisplatin regimen 3.33
  Cell population measurements: 91
[4]; A2780CP after cisplatin regimen 3.36
  Cell population measurements: 100
[4]; A2780CP after cisplatin regimen 4.36
  Cell population measurements: 83
[4]; A2780CP after cisplatin regimen 5.36
  Cell population measurements: 98
[5]; A2008 after cisplatin regimen 1.33
  Cell population measurements: 19
[5]; A2008 after cisplatin regimen 2.33
  Cell population measurements: 33
[5]; A2008 after cisplatin regimen 3.33
  Cell population measurements: 25
[5]; A2008 after cisplatin regimen 3.36
  Cell population measurements: 25.6
[5]; A2008 after cisplatin regimen 4.36
  Cell population measurements: 29
[5]; A2008 after cisplatin regimen 5.36
  Cell population measurements: 37
[6]; IGROV1 after cisplatin regimen 1.33
  Cell population measurements: 69
[6]; IGROV1 after cisplatin regimen 2.33
  Cell population measurements: 48
[6]; IGROV1 after cisplatin regimen 3.33
  Cell population measurements: 55
[6]; IGROV1 after cisplatin regimen 3.36
  Cell population measurements: 68.3
[6]; IGROV1 after cisplatin regimen 4.36
  Cell population measurements: 69
[6]; IGROV1 after cisplatin regimen 5.36
  Cell population measurements: 58
[7]; T8 after cisplatin regimen 1.33
  Cell population measurements: 42
[7]; T8 after cisplatin regimen 2.33
  Cell population measurements: 64
[7]; T8 after cisplatin regimen 3.33
  Cell population measurements: 67
[7]; T8 after cisplatin regimen 3.36
  Cell population measurements: 68.4
[7]; T8 after cisplatin regimen 4.36
  Cell population measurements: 69
[7]; T8 after cisplatin regimen 5.36
  Cell population measurements: 62
IOSER cells; IOSER after cisplatin regimen 1.33
  Cell population measurements: 62
IOSER cells; IOSER after cisplatin regimen 2.33
  Cell population measurements: 70
IOSER cells; IOSER after cisplatin regimen 3.33
  Cell population measurements: 79
IOSER cells; IOSER after cisplatin regimen 3.36
  Cell population measurements: 89
IOSER cells; IOSER after cisplatin regimen 4.36
  Cell population measurements: 71
IOSER cells; IOSER after cisplatin regimen 5.36
  Cell population measurements: 84
[8]; C13 after cisplatin regimen 1.33
  Cell population measurements: 83
[8]; C13 after cisplatin regimen 2.33
  Cell population measurements: 73
[8]; C13 after cisplatin regimen 3.33
  Cell population measurements: 71
[8]; C13 after cisplatin regimen 3.36
  Cell population measurements: 53
[8]; C13 after cisplatin regimen 4.36
  Cell population measurements: 91
[8]; C13 after cisplatin regimen 5.36
  Cell population measurements: 67
